# Laboratory results from US9840510B1, “Pyrazolo[1,5-a]pyrimidinyl carboxamide compounds and their use in the treatment of medical disorders” (Lysosomal Therapeutics Inc., priority 2016, dated 2017).
# Test: Compound solubility in water
# Type: physicochemical
SMILES,solubility [µg/mL],Compound Solubility in Water [µg/mL]
COCCOc1ccc(-c2cc(C)n3ncc(C(=O)NC(C)C(F)(F)F)c3n2)cc1F (stereo not shown) [III-298],1.5,–
CNc1cc(C)n2ncc(C(=O)N[C@@H](C)C3CC3)c2n1 [III-6],23.8,–
Cc1cc(N2CCCN(C(C)C)C2=O)nc2c(C(=O)NC(C)(C)C3CC3)cnn12 [III-261],23,–
Cc1cc(N2CCCN(C(C)C)C2=O)nc2c(C(=O)NC(C)(C)C)cnn12 [III-258],26.4,–
Cc1cc(-c2cncc(F)c2)nc2c(C(=O)NC(C3CC3)C(F)(F)F)cnn12 (stereo not shown) [III-125],3.4,–
Cc1cc(-c2ccc(F)cc2)nc2c(C(=O)N[C@H](C)C3CC3)cnn12 [III-86],2.8,–
CCc1cc(N2CCN(C(C)C)C2=O)nc2c(C(=O)NC(C)(C)C)cnn12 [III-229],13.5,–
Cc1cc(-c2ccc3c(c2)OCO3)nc2c(C(=O)N[C@@H](C)C3CC3)cnn12 [III-210],2.4,–
Cc1cc(-c2cccnc2)nc2c(C(=O)N[C@H]3CC[C@H](OCC(C)C)CC3)cnn12 [III-39],4.4,–
Cc1cc(C(F)(F)F)nc2c(C(=O)NC(C)(C)C3CC3)cnn12 [III-68],11.9,–
Cc1cc(C)n2nc(Cl)c(C(=O)N[C@@H](C)C3CC3)c2n1 [III-34],10.3,–
Cc1cc(Cl)nc2c(C(=O)NC(C)(C)C3CC3)cnn12 [III-15],14.1,–
Cc1cc(N2CCN(C(C)C)C2=O)nc2c(C(=O)NC(C)(C)C)cnn12 [III-232],23.7,–
Cc1cc(-c2ccns2)nc2c(C(=O)N[C@@H](C3CC3)C(F)(F)F)cnn12 [III-101],1.3,–
Cc1cc(-c2cccc(Oc3ncccn3)c2)nc2c(C(=O)NC(C3CC3)C(F)(F)F)cnn12 (stereo not shown) [III-103],0.8,–
Cc1cc(-c2cccc(Cl)n2)nc2c(C(=O)NC(C)(C)C3CC3)cnn12 [III-62],1.2,–
CCCO[C@H]1CC[C@H](NC(=O)c2cnn3c(C)cc(-c4cccnc4)nc23)CC1 [III-40],20,–
Cc1cc(-c2cc(F)ccn2)nc2c(C(=O)NC(C3CC3)C(F)(F)F)cnn12 (stereo not shown) [III-205],0.1,–

# Second part, the compound after the results:
solubility [µg/mL],Compound Solubility in Water [µg/mL],SMILES
0.1,–,Cc1cc(N2CC(C(C)C)OC2=O)nc2c(C(=O)NC(c3ccccc3)C(F)(F)F)cnn12 (stereo not shown) [III-313]
0.07,–,Cc1cc(-c2cccc(F)c2)nc2c(C(=O)NC(C3CC3)C(F)(F)F)cnn12 (stereo not shown) [III-111]
7.8,–,Cc1cc(-c2cnccc2F)nc2c(C(=O)NC(C)C(F)(F)F)cnn12 (stereo not shown) [III-199]
0.07,–,Cc1cc(-c2ncccc2F)nc2c(C(=O)NC(C3CC3)C(F)(F)F)cnn12 (stereo not shown) [III-203]
13.2,–,Cc1cc(-c2cnccc2C(F)(F)F)nc2c(C(=O)NC(C)C(F)(F)F)cnn12 (stereo not shown) [III-284]
1.3,–,Cc1cc(N2CC(C)(C)NC2=O)nc2c(C(=O)NC(C3CC3)C(F)(F)F)cnn12 (stereo not shown) [III-319]
0.5,–,Cc1cc(-n2ccc(Cl)n2)nc2c(C(=O)NC(C)C(F)(F)F)cnn12 (stereo not shown) [III-170]
0.3,–,Cc1cc(-c2ccc3ocnc3c2)nc2c(C(=O)NC(C3CC3)C(F)(F)F)cnn12 (stereo not shown) [III-83]
14.1,–,CCc1cc(-c2ccccn2)n2ncc(C(=O)NC(C)C(F)(F)F)c2n1 (stereo not shown) [III-51]
0.5,–,Cc1ccc(-c2cc(C)n3ncc(C(=O)NC(C4CC4)C(F)(F)F)c3n2)cn1 (stereo not shown) [III-278]
0.1,–,COc1c(F)cccc1-c1cc(C)n2ncc(C(=O)NC(C3CC3)C(F)(F)F)c2n1 (stereo not shown) [III-139]
0.2,–,C#CC(NC(=O)c1cnn2c(C)cc(-c3cccc(Cl)c3)nc12)C(F)(F)F (stereo not shown) [III-99]
0.3,–,Cc1cc(-c2cccc(-c3ncco3)c2)nc2c(C(=O)NC(C3CC3)C(F)(F)F)cnn12 (stereo not shown) [III-416]
0.4,–,Cc1cc(-c2ccc(C#N)nc2)nc2c(C(=O)N[C@H](C3CC3)C(F)(F)F)cnn12 [III-367]
0.3,–,Cc1cc(-c2cccc(OC3CC3)c2)nc2c(C(=O)NC(C)C(F)(F)F)cnn12 (stereo not shown) [III-77]
0.8,–,Cc1cc(-c2ccc3c(c2)OCO3)nc2c(C(=O)NC(C)C(F)(F)F)cnn12 (stereo not shown) [III-289]
–,0.8,Cc1cc(-c2ccc(F)nc2)nc2c(C(=O)NC(C3CC3)C(F)(F)F)cnn12 (stereo not shown) [III-112]
2.2,–,COc1c(C#N)cccc1-c1cc(C)n2ncc(C(=O)NC(C)C(F)(F)F)c2n1 (stereo not shown) [III-142]
0.6,–,Cc1cc(-c2cccc(F)c2)nc2c(C(=O)N[C@@H](C)C(F)(F)F)cnn12 [III-362]
0.06,–,COc1cc(F)cc(-c2cc(C)n3ncc(C(=O)NC(C)C(F)(F)F)c3n2)c1 (stereo not shown) [III-410]
12.7,–,Cc1ccc(-c2cc(C)n3ncc(C(=O)NC(C)C(F)(F)F)c3n2)cn1 (stereo not shown) [III-283]
1,–,Cc1cc(-c2cccc(C(N)=O)n2)nc2c(C(=O)NC(C3CC3)C(F)(F)F)cnn12 (stereo not shown) [III-161]
1.4,–,Cc1cc(-c2sccc2C#N)nc2c(C(=O)NC(C)C(F)(F)F)cnn12 (stereo not shown) [III-300]
6.3,–,Cc1cc(-c2ccc(C#N)o2)nc2c(C(=O)NC(C3CC3)C(F)(F)F)cnn12 (stereo not shown) [III-185]
0.7,–,Cc1ncc(-c2cc(C)n3ncc(C(=O)N[C@@H](C4CC4)C(F)(F)F)c3n2)o1 [III-248]
